Source: the supplement of paper PMC10307832

Legend:
Assay in all cases: relative viability (nuclei count vs DMSO), 5 days (fraction); higher = more cells survive
[1] = compound: CS(=O)(=O)c1ccc(C(=O)Nc2ccc(Cl)c(-c3ccccn3)c2)c(Cl)c1 [Vismodegib] + CC(=O)c1c(C)c2cnc(Nc3ccc(N4CCNCC4)cn3)nc2n(C2CCCC2)c1=O [Palbociclib] (partner 0.5 µM)
How it was run: (§1)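 Lung cancer cell lines were seeded in 1536-well plates and dosed by pin tool the next day, with either a single drug or a fixed anchor-drug dose combined with five library-drug doses (not always all listed) spaced in √10 steps. Five days later, one step fixed the cells and stained their nuclei (final 0.05% Triton X-100, 1% formaldehyde, 1 ug/ml Hoechst), and nuclei were counted on 4× images. Relative viability is the nuclei count in treated wells divided by the count in vehicle wells, and each value is the median of duplicate plates.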

[2] = compound: CS(=O)(=O)c1ccc(C(=O)Nc2ccc(Cl)c(-c3ccccn3)c2)c(Cl)c1 [Vismodegib] + C[C@]1(O)C[C@@H](c2nc(-c3ccc4ccc(-c5ccccc5)nc4c3)c3c(N)nccn32)C1 [Linsitinib] (partner 1 µM)
How it was run: as §1

[3] = compound: CS(=O)(=O)c1ccc(C(=O)Nc2ccc(Cl)c(-c3ccccn3)c2)c(Cl)c1 [Vismodegib] + O=C(CCCCCCC(=O)Nc1ccccc1)NO [Vorinostat] (partner 1 µM)
How it was run: as §1

[4] = compound: N#CC[C@H](C1CCCC1)n1cc(-c2ncnc3[nH]ccc23)cn1 [Ruxolitinib] + C[C@]1(O)C[C@@H](c2nc(-c3ccc4ccc(-c5ccccc5)nc4c3)c3c(N)nccn32)C1 [Linsitinib] (partner 1 µM)
How it was run: as §1

| Cell Line | relative viability ([1]; first compound 0.08 µM) | relative viability ([1]; first compound 0.253 µM) | relative viability ([1]; first compound 0.8 µM) | relative viability ([1]; first compound 2.53 µM) | relative viability ([1]; first compound 8 µM) | relative viability ([2]; first compound 0.08 µM) | relative viability ([2]; first compound 0.253 µM) | relative viability ([2]; first compound 0.8 µM) | relative viability ([2]; first compound 2.53 µM) | relative viability ([2]; first compound 8 µM) | relative viability ([3]; first compound 0.08 µM) | relative viability ([3]; first compound 0.253 µM) | relative viability ([3]; first compound 0.8 µM) | relative viability ([3]; first compound 2.53 µM) | relative viability ([3]; first compound 8 µM) | relative viability ([4]; first compound 0.08 µM) | relative viability ([4]; first compound 0.253 µM) | relative viability ([4]; first compound 0.8 µM) | relative viability ([4]; first compound 2.53 µM) | relative viability ([4]; first compound 8 µM) |
| --- | --- | --- | --- | --- | --- | --- | --- | --- | --- | --- | --- | --- | --- | --- | --- | --- | --- | --- | --- | --- |
| SK-MES-1 | 0.289 | 0.306 | 0.349 | 0.351 | 0.364 | 1.04 | 1.07 | 1.08 | 0.973 | 1.07 | 1.11 | 0.981 | 1.07 | 0.973 | 1.06 | 1.15 | 1.02 | 1.04 | 0.866 | 0.622 |
| HCC-827 | 0.222 | 0.517 | 0.449 | 0.446 | 0.481 | 0.926 | 0.906 | 0.949 | 0.896 | 1.04 | 0.878 | 0.903 | 0.909 | 0.774 | 0.861 | – | 1.03 | 0.913 | 0.972 | 0.803 |
| NCI-H596 | – | – | – | – | – | 0.976 | 1.07 | 1.1 | 1.01 | 1.15 | 0.682 | 0.65 | 0.609 | 0.486 | 0.642 | 1.24 | 1.18 | 1.09 | 1.11 | 1.11 |
| COR-L23 | 0.337 | 0.33 | 0.344 | 0.289 | 0.312 | 0.934 | 0.812 | 0.972 | 0.859 | 1.1 | 0.408 | 0.478 | 0.388 | 0.384 | 0.451 | 0.919 | 0.92 | 0.95 | 0.833 | 0.671 |
| 201T | 0.323 | 0.393 | 0.363 | 0.359 | 0.382 | 0.954 | 1.09 | 1 | 0.978 | 1.01 | 0.956 | 0.952 | 0.973 | 0.977 | 0.924 | 1.1 | 1.15 | 1.19 | 1.21 | 1.22 |
| NCI-H322M | 0.455 | 0.465 | 0.459 | 0.506 | 0.509 | 0.771 | 1.01 | 0.975 | 0.958 | 0.924 | 0.925 | 0.842 | 0.848 | 0.851 | 0.855 | 1.05 | 0.9 | 0.997 | 0.91 | 1.17 |
| LU99A | 0.387 | 0.4 | 0.393 | 0.409 | 0.433 | 0.521 | 0.507 | 0.508 | 0.464 | 0.621 | 0.409 | 0.469 | 0.498 | 0.469 | 0.509 | 0.549 | 0.499 | 0.541 | 0.554 | 0.499 |
| NCI-H2405 | 0.527 | 0.493 | 0.498 | 0.515 | 0.571 | – | 0.859 | 0.806 | 0.776 | 1.07 | 0.958 | 0.85 | 1 | 1.02 | 1.06 | – | 0.779 | 1.1 | 0.528 | 0.632 |
| LK-2 | 0.72 | 0.708 | 0.607 | 0.83 | 0.745 | 0.427 | 0.49 | 0.539 | 0.46 | 0.378 | 0.246 | 0.31 | 0.294 | 0.286 | 0.239 | 0.459 | 0.715 | 0.722 | 0.36 | 0.765 |
| HCC-366 | 0.342 | 0.373 | 0.463 | 0.456 | 0.449 | 0.628 | 0.636 | 0.575 | 0.563 | 0.703 | 0.46 | 0.37 | 0.25 | 0.354 | 0.285 | 0.595 | 0.401 | 0.647 | 0.535 | 0.541 |
| NCI-H441 | 0.203 | – | 0.196 | 0.243 | 0.24 | 0.419 | 0.562 | 0.48 | 0.508 | 0.653 | 0.875 | – | 0.552 | 0.678 | 0.839 | 0.508 | 0.573 | 0.512 | 0.637 | 0.286 |
| COR-L 105 | 0.425 | 0.415 | 0.369 | 0.405 | 0.388 | 0.781 | 0.978 | 0.965 | 1.01 | 0.849 | 0.94 | 0.803 | 0.829 | 0.826 | 0.71 | 0.95 | 0.719 | 0.912 | 0.642 | 0.758 |
| A-427 | 0.536 | 0.525 | 0.506 | 0.493 | 0.566 | 1.12 | 1.09 | 1.11 | 1.11 | 1.12 | 0.923 | 0.862 | 0.814 | 0.872 | 0.84 | 1.14 | 1.11 | 1.13 | 0.961 | 0.922 |
| HCC-44 | 1.02 | 0.92 | 0.911 | 0.913 | 1.01 | 0.668 | 0.581 | 0.66 | 0.715 | 0.71 | 1.21 | 1.02 | 1.1 | 1.08 | 1.11 | 0.664 | 0.739 | 0.66 | 0.51 | 0.395 |
